The term inhibition denotes the drop in the measured response relative to a control, in per cent.

In ChEMBL document CHEMBL5442219 one finds inhibition data, which are given here for seven compounds.

Common to all, as to details: Compound concentration 10 µM
Experiment [1] addresses T1, Alpha-1A adrenergic receptor (Homo sapiens) (UniProt P35348).
T1 sequence (whole entry): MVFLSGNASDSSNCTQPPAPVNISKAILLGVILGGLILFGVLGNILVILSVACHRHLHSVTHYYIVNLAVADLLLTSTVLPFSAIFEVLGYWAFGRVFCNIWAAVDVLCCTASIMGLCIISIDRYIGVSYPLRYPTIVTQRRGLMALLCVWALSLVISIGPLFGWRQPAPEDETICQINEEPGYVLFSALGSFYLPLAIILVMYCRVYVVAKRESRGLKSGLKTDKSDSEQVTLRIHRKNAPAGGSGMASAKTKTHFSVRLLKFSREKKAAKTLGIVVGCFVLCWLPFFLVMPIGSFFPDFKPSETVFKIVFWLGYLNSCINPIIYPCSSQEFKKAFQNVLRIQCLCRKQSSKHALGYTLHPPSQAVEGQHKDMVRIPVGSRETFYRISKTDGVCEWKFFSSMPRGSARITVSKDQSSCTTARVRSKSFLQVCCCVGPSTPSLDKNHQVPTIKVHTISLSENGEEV

The target in experiment [2] is T2, Alpha-1D adrenergic receptor (Homo sapiens) (UniProt P25100).
T2 sequence (whole entry): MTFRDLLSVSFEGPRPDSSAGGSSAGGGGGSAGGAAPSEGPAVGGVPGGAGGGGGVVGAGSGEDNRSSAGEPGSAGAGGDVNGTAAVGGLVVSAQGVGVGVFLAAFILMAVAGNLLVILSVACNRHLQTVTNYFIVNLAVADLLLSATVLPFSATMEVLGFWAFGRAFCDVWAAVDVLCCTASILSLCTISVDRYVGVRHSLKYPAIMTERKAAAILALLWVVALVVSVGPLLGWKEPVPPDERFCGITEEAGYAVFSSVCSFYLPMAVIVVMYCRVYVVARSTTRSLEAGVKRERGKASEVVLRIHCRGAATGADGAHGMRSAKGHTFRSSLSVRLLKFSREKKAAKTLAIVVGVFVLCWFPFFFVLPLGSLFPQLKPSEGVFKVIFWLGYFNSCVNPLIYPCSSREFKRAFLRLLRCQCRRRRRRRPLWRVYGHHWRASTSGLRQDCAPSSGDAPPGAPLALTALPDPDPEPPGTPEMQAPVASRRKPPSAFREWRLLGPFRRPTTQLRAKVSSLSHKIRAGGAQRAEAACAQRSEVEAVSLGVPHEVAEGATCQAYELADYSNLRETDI

The target of experiment [3] is Beta-2 adrenergic receptor (Homo sapiens) (UniProt P07550).
In experiment [4] the target is T3, Muscarinic acetylcholine receptor M1 (Homo sapiens) (UniProt P11229).
T3 sequence (whole entry): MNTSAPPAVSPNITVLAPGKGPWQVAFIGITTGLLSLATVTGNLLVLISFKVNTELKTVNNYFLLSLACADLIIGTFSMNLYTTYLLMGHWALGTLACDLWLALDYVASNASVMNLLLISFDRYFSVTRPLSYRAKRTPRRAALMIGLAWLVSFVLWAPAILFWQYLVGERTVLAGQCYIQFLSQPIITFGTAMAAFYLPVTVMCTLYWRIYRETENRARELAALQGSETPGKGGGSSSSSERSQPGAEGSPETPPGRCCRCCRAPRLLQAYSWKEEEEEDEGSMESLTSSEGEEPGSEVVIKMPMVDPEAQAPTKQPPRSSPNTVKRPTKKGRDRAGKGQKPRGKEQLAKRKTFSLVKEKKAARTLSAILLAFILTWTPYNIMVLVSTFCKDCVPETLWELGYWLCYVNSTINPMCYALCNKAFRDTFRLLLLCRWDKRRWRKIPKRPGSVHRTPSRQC

Experiment [5] deals with D(2) dopamine receptor (Homo sapiens) (UniProt P14416).
Experiment [6] concerns the target D(3) dopamine receptor (Homo sapiens) (UniProt P35462).
Experiment [7] concerns the target D(1B) dopamine receptor (Homo sapiens) (UniProt P21918).
Experiment [8] concerns the target 5-hydroxytryptamine receptor 1B (Homo sapiens) (UniProt P28222).
The target in experiment [9] is 5-hydroxytryptamine receptor 1D (Homo sapiens) (UniProt P28221).
Sequence of 5-hydroxytryptamine receptor 1D (Homo sapiens) (P28221 whole entry): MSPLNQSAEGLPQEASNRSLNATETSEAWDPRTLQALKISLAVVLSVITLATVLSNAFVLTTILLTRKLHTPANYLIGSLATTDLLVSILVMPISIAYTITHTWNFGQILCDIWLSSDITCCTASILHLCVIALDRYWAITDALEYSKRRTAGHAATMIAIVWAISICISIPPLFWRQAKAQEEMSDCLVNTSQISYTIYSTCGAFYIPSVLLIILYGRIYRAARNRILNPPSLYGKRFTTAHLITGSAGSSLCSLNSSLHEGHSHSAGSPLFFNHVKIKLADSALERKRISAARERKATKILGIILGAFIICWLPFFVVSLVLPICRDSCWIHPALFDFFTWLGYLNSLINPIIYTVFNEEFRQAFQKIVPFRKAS
The target of experiment [10] is 5-hydroxytryptamine receptor 2A (Homo sapiens) (UniProt P28223).
Sequence of 5-hydroxytryptamine receptor 2A (Homo sapiens) (P28223 whole entry): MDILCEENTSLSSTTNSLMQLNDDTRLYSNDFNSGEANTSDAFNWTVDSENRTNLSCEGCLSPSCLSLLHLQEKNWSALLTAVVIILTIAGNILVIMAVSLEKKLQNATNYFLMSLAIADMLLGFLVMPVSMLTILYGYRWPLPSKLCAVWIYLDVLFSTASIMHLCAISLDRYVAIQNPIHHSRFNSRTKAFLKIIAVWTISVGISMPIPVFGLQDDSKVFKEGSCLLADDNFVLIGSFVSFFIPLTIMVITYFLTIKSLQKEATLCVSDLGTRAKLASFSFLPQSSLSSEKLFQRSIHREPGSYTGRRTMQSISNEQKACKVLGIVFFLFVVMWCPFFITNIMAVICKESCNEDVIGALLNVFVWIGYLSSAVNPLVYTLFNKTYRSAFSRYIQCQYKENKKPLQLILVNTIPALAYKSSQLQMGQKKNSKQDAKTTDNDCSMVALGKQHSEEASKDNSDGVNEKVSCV
For experiment [11], the target named is 5-hydroxytryptamine receptor 2B (Homo sapiens) (UniProt P41595).
Sequence of 5-hydroxytryptamine receptor 2B (Homo sapiens) (P41595 whole entry): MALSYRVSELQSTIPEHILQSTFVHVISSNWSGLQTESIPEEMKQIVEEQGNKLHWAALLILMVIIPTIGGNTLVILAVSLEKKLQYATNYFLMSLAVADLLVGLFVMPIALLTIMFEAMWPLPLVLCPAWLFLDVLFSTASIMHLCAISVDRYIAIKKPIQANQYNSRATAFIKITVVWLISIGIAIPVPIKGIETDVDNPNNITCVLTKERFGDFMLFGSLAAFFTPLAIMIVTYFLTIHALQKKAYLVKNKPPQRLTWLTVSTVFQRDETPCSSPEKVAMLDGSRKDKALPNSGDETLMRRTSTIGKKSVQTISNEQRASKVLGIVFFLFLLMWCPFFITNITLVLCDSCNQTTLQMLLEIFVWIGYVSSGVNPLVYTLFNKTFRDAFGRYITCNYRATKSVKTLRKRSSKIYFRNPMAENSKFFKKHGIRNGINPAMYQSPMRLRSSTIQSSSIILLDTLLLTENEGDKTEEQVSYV
The target of experiment [12] is T4, 5-hydroxytryptamine receptor 3A (Homo sapiens) (UniProt P46098).
T4 sequence (whole entry): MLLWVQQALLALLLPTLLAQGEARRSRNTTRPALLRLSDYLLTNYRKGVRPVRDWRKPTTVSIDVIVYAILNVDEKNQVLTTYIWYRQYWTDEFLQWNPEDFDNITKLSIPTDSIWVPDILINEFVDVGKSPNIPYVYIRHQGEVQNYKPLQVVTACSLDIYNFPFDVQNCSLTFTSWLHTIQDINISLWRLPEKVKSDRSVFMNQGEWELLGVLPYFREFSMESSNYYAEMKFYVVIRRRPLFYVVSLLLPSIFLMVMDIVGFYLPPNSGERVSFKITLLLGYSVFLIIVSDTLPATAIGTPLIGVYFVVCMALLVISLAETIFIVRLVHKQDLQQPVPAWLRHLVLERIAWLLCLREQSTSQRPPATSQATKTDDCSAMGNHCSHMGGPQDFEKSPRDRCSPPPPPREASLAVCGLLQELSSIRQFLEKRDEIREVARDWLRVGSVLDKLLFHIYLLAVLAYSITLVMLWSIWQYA

In experiment [13] the target is 5-hydroxytryptamine receptor 7 (Homo sapiens) (UniProt P34969).
The target of experiment [14] is Delta-type opioid receptor (Homo sapiens) (UniProt P41143).
Sequence of Delta-type opioid receptor (Homo sapiens) (P41143 whole entry): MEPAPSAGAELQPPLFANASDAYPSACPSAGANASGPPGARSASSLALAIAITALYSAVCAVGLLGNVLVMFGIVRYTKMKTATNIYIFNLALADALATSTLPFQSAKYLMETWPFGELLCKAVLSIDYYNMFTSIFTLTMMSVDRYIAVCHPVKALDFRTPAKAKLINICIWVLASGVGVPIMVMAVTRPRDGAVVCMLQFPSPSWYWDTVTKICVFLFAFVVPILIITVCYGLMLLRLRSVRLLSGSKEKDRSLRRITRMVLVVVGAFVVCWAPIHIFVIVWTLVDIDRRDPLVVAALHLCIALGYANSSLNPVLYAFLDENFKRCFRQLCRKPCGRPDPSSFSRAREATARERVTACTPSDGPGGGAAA
In experiment [15] the target is Sodium-dependent dopamine transporter (Homo sapiens) (UniProt Q01959).
Sequence of Sodium-dependent dopamine transporter (Homo sapiens) (Q01959 whole entry): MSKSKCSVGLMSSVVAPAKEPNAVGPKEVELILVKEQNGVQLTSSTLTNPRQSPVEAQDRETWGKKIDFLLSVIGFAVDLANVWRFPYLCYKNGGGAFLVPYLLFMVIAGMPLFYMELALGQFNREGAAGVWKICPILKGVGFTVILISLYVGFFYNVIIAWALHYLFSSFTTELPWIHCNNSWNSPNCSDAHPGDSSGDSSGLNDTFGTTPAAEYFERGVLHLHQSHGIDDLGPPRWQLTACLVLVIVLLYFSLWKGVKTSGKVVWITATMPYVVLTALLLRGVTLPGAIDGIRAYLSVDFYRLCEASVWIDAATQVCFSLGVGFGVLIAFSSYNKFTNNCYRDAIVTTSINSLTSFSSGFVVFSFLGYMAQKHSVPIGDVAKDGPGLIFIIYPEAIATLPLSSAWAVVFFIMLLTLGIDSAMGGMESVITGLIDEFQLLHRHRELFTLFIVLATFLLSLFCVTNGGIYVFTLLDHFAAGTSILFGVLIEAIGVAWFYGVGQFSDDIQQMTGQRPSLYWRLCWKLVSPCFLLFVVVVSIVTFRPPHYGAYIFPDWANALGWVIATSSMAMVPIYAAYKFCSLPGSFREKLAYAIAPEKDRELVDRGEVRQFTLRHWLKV
Experiment [16] deals with Sigma intracellular receptor 2 (Homo sapiens) (UniProt Q5BJF2).
For experiment [17], the target named is Histamine H1 receptor (Homo sapiens) (UniProt P35367).
The target in experiment [18] is Histamine H4 receptor (Homo sapiens) (UniProt Q9H3N8).
Sequence of Histamine H4 receptor (Homo sapiens) (Q9H3N8 whole entry): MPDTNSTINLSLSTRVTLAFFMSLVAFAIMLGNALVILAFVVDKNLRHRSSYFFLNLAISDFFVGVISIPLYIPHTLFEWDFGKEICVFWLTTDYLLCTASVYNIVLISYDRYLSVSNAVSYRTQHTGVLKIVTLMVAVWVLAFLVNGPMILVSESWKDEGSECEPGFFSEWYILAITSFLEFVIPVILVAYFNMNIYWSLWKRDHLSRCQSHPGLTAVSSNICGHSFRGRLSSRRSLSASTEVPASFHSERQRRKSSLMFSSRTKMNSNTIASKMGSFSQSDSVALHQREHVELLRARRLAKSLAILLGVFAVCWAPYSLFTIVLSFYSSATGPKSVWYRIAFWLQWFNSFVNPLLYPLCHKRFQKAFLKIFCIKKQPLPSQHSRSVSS
Experiment [19] deals with Muscarinic acetylcholine receptor M3 (Homo sapiens) (UniProt P20309).
Sequence of Muscarinic acetylcholine receptor M3 (Homo sapiens) (P20309 whole entry, looked up): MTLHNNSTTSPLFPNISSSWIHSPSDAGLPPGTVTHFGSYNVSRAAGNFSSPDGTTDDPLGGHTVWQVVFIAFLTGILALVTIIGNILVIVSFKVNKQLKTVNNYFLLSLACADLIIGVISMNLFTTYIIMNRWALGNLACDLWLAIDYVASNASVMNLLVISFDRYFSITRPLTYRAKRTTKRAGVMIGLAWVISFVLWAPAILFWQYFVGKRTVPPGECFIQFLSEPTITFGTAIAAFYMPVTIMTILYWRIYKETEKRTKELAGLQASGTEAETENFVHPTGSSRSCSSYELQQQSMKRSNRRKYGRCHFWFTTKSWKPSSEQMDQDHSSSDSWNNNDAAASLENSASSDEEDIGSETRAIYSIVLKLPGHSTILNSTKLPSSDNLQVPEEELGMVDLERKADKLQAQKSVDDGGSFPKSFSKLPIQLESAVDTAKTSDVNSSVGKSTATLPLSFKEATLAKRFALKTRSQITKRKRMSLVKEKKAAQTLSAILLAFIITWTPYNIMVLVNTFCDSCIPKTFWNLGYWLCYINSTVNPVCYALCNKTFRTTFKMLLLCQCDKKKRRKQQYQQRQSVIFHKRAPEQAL
Experiment [20] concerns the target Mu-type opioid receptor (Homo sapiens) (UniProt P35372).

Sequence of 5-hydroxytryptamine receptor 1B (Homo sapiens) (P28222 whole entry): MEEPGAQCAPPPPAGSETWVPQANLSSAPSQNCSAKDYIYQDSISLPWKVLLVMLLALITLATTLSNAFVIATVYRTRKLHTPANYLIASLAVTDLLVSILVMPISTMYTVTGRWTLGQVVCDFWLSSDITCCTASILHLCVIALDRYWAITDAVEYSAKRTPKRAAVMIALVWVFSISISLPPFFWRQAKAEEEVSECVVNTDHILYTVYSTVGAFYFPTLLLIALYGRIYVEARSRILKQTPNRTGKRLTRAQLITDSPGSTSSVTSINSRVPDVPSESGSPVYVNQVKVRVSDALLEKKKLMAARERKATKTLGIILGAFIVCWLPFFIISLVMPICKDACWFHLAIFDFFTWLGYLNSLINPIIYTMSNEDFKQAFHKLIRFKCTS
Sequence of D(1B) dopamine receptor (Homo sapiens) (P21918 whole entry): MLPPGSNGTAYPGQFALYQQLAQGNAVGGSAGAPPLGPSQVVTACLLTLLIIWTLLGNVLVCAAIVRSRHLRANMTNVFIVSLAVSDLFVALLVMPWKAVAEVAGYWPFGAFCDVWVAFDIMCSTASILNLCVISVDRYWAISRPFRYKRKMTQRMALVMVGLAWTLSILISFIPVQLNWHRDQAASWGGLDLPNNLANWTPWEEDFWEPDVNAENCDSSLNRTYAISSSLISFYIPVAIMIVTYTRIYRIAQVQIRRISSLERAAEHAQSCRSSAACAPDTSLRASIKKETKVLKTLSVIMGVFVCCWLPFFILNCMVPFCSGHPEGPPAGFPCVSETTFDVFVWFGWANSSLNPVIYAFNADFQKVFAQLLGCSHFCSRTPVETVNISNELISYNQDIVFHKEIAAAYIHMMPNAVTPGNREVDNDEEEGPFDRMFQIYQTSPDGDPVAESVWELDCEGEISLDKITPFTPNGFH
Sequence of Mu-type opioid receptor (Homo sapiens) (P35372 whole entry): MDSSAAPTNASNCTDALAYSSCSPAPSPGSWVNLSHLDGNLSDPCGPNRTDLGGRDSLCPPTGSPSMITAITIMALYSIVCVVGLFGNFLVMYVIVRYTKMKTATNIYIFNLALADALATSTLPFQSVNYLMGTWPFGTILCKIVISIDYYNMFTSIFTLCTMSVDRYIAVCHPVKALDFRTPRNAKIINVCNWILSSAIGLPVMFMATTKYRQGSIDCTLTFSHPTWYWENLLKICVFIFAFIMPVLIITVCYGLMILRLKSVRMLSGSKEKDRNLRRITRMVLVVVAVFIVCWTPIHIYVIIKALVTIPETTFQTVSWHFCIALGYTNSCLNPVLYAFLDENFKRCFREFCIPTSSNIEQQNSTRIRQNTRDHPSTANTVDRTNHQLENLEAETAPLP
Sequence of D(3) dopamine receptor (Homo sapiens) (P35462 whole entry): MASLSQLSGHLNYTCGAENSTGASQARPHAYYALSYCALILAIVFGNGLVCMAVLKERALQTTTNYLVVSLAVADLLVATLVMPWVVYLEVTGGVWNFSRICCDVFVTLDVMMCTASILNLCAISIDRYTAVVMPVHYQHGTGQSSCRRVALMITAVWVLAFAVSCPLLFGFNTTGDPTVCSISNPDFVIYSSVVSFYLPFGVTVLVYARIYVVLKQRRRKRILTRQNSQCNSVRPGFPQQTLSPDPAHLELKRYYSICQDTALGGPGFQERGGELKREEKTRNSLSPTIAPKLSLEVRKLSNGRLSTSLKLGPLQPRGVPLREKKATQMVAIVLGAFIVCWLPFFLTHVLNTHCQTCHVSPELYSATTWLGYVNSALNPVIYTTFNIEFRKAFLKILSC

Consider `NC[C@H](O)c1ccc(O)c(O)c1`, for which the inhibition in experiment [1] is 7.82%; in experiment [2], 64.8%; in experiment [3], 16.9%; in experiment [4] it was -6.89%; in experiment [5], 6.01%; in experiment [6] it was 57.9%. Further, the inhibition in experiment [7] is 34.8%; in experiment [8], 10.7%; in experiment [9], 24.3%; in [10] it was 10.9%; in experiment [11], 24.8%; in [12] it was -8.31%. In addition, the inhibition is -5% in experiment [13], -5.14% in [14], 21.8% in [15] and 24.6% in [16].
Consider `N#Cc1c[nH]c2c(C(=O)N3CCN(CCc4ccc(F)cc4)CC3)cccc12`, for which the inhibition in [1] was -8.21%; in [2] it was -4.02%; in experiment [3], 60.9%; in experiment [4], -2.04%; in experiment [5], 7.47%; in [6], 10.4%. The inhibition in experiment [7] was 8.62%; in [17] it was 46.1%; in experiment [18] it was -2.67%; in experiment [8], -5.18%; in experiment [9], 61.7%; in [10] it was 100%. The inhibition was 57.1% in [11]; -8.41% in experiment [12]; 50.6% in experiment [13]; 36.2% in experiment [15]; 68.2% in experiment [16].
For the compound `Cc1cc(C)c(N)c(C#Cc2cccc(F)c2)n1`, the inhibition is 10.2% in [1]; 28.9% in experiment [2]; 19.8% in experiment [3]; -6.32% in experiment [19]; 0.33% in experiment [5]; 9.35% in [6]. For the same compound, the inhibition in experiment [7] was 0.26%; in [17] it was 9.77%; in experiment [18], 8.38%; in [8], 16.6%; in experiment [9], 18.3%; in experiment [10] it was 5.87%. Moreover, the inhibition in experiment [11] is 29.9%; in experiment [12] it was -2.76%; in experiment [13], 7.78%; in experiment [14], -1.56%; in experiment [20], 2.84%; in experiment [15], 9.26%. Further, the inhibition in experiment [16] was 15.9%.
Turning to `CCC(=O)NCC[C@@H]1CCc2ccc3c(c21)CCO3`, the inhibition in [1] is -9.5%; in experiment [2], 10.9%; in experiment [3], 12.6%; in experiment [4] it was -3.08%; in experiment [5], 2.72%; in experiment [6], 8.49%. The inhibition was -3.26% in experiment [7]; -1.68% in experiment [17]; 15.8% in experiment [8]; 6.75% in [9]; 6.79% in experiment [10]; 72% in experiment [11]. Besides, the inhibition is 6.73% in experiment [12]; 12.4% in [13]; -5.97% in experiment [14]; -7.21% in experiment [20]; -2.02% in [15]; 47.4% in experiment [16].
For the compound `CC(C)[C@H](CO)Nc1nc(Nc2cccc(Cl)c2)c2ncn(C(C)C)c2n1`, the inhibition in [1] was 1.19%; in experiment [2] it was 13%; in experiment [3], -7.15%; in experiment [19], -0.08%; in experiment [5], 11%; in experiment [6], 22.4%. The inhibition in experiment [7] is 8.79%; in experiment [17], -4.77%; in [18], 11.2%; in [8], 38.1%; in experiment [9], 60.1%; in experiment [10], 41.8%. The inhibition is 96.2% in experiment [11]; 25.4% in [12]; 11.4% in experiment [13]; 5.89% in [14]; 9.06% in experiment [20]; 17.5% in experiment [15]. In addition, in experiment [16], the inhibition is 63.1%.
With `CCc1nn(CCCN2CCN(c3cccc(Cl)c3)CC2)c(=O)n1CCOc1ccccc1`, the inhibition is 96% in experiment [1]; 83.9% in experiment [2]; -0.82% in [3]; 0.27% in experiment [19]; 69.7% in experiment [5]; 86.1% in experiment [6]. Besides, the inhibition in experiment [7] was 6.13%; in experiment [17] it was 94.5%; in [18] it was 5.27%; in experiment [8], 88%; in experiment [9], 100%; in [10], 82%. For the same compound, the inhibition in experiment [11] is 79.6%; in [12], 3.68%; in [13], 97%; in [14], 13%; in experiment [20], 32.2%; in experiment [15], 78.7%. Besides, the inhibition in experiment [16] is 91.7%.
Take `N#Cc1c(N)nc(SCc2csc(-c3ccc(Cl)cc3)n2)c(C#N)c1-c1ccc(OCCO)cc1`: the inhibition is 6.84% in experiment [1]; 6.13% in experiment [2]; 17% in experiment [3]; -3.33% in experiment [4]; 12.5% in experiment [6]; 14.2% in experiment [17]. Also, the inhibition in [18] is -8.37%; in experiment [8] it was 13%; in [9], 5.65%; in experiment [10] it was 18.4%; in experiment [11], 62.1%; in [12] it was 1.79%. For the same compound, the inhibition in experiment [13] was 3.33%; in [15] it was 64.1%; in experiment [16] it was 36.6%.
